Assay results taken from patent US7566736B2, “Substituted indoles, compositions containing them, method for the production thereof and their use” (Aventis Pharma S.A., priority 2004, dated 2009).

How the values were obtained:
[1] = target: T1, human Tie2 (Homo sapiens, UniProt Q02763); test: phosphorylation of PLC by Tie2 (GST-Tie2), FlashPlate; format: biochemical; details: read-out: TIE2 IC 50
T1 construct: corresponding to the intracellular domain amino acids 776-1124 was generated by PCR; made in house; host or cells: baculovirus expression vector pFastBacGT
T1 sequence (Q02763 776-1124): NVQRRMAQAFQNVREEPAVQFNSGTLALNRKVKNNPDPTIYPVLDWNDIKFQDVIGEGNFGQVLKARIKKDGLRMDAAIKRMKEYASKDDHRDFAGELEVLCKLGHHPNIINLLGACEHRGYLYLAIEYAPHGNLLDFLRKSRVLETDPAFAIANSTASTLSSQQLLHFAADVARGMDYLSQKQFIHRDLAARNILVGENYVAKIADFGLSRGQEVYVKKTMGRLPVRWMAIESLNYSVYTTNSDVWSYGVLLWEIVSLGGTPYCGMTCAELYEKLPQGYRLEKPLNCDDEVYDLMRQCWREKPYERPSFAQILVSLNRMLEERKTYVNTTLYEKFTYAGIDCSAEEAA
Experimental: The human Tie2 coding sequence corresponding to the intracellular domain amino acids 776-1124 was generated by PCR using the cDNA isolated from human placenta as a model. This sequence was introduced into a baculovirus expression vector pFastBacGT in the form of a GST fusion protein.
The inhibitory effect of the molecules is determined in an assay for phosphorylation of PLC by Tie2 in the presence of GST-Tie2 purified to approximately 80% homogeneity. The substrate is made up of the SH2-SH3 fragments of PLC expressed in the form of a GST fusion protein.
The kinase activity of Tie2 is measured in a 20 mM MOPS buffer, pH 7.2, containing 10 mM MgCl2, 10 mM MnCl2, 1 mM DTT and 10 mM of glycerophosphate. A reaction mixture made up to 70 μl of kinase buffer containing 100 ng of GST-Tie2 enzyme is deposited into each well of a 96-well FlashPlate kept on ice. 10 μl of the test molecule diluted in DMSO at a maximum concentration of 10% are then added. For a given concentration, each measurement is determined in quadruplicate. The reaction is initiated by adding 20 μl of solution containing 2 μg of GST-PLC, 2 μM of cold ATP and 1 μCi of ^33P [ATP]. After incubation at 37° C. for 1 hour, the reaction is stopped by adding 1 volume (100 μl) of 200 mM EDTA. After the incubation buffer has been removed, the wells are washed three times with 300 μl of PBS. The radioactivity is measured on a Wallac MicroBeta 1450.
The inhibition of the Tie2 activity is calculated and expressed as percentage inhibition with respect to the control activity determined in the absence of compound.

[2] = target: T2, human KDR enzyme (Homo sapiens, UniProt P35968); test: phosphorylation of substrate by the KDR enzyme in vitro, scintillation technique; format: biochemical; details: read-out: KDR IC 50
T2 construct: The cytoplasmic domain of the human KDR enzyme was cloned in the form of a GST fusion; GST; made in house; host or cells: SF21 insect cells (baculovirus, pFastBac)
T2 sequence (P35968 786-1356 limits assumed): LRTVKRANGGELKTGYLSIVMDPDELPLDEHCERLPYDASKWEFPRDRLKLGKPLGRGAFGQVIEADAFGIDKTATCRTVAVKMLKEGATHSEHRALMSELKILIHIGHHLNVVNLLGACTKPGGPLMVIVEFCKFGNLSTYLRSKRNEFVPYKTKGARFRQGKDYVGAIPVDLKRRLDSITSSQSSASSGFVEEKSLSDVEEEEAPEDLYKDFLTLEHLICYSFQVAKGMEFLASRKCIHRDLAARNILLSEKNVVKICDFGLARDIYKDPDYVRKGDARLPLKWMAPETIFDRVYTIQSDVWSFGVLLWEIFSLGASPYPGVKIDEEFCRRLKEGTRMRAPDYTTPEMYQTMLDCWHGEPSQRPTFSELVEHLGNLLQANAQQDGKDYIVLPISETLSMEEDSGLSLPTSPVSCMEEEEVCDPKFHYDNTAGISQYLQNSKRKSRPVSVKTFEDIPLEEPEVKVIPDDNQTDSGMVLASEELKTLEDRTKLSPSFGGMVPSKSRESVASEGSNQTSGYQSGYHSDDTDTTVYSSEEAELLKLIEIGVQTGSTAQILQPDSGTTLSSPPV
Experimental: The inhibitory effect of the compounds is determined in an assay for phosphorylation of substrate by the KDR enzyme in vitro using a scintillation technique (96-well plate, NEN).
The cytoplasmic domain of the human KDR enzyme was cloned in the form of a GST fusion into the baculovirus expression vector pFastBac. The protein was expressed in SF21 cells and purified to approximately 60% homogeneity.
The kinase activity of KDR is measured in 20 mM MOPS, 10 mM MgCl2, 10 mM MnCl2, 1 mM DTT, 2.5 mM EGTA, 10 mM β-glycerophosphate, pH=7.2, in the presence of 10 mM MgCl2, 100 μM Na3VO4, 1 mM NaF. 10 μl of the compound are added to 70 μl of kinase buffer containing 100 ng of KDR enzyme at 4° C. The reaction is initiated by adding 20 μl of solution containing 2 μg of substrate (SH2-SH3 fragment of PLCγ expressed in the form of a GST fusion protein), 2 μCi γ ^33P[ATP] and 2 μM cold ATP. After incubation at 37° C. for 1 hour, the reaction is stopped by adding 1 volume (100 μl) of 200 mM EDTA. The incubation buffer is removed and the wells are washed three times with 300 μl of PBS. The radioactivity is measured in each well using a Top Count NXT radioactivity counter (Packard).
The background noise is determined by measuring the radioactivity in four different wells containing the radioactive ATP and the substrate alone.
A control for total activity is measured in four different wells containing all the reactants (γ^33P-[ATP], KDR and PLCY substrate) but in the absence of compound.
The inhibition of the KDR activity with the compound of the invention is expressed as percentage inhibition of the control activity determined in the absence of compound.
The compound SU5614 (Calbiochem) (1 μM) is included in each plate as an inhibition control.

[3] = target: FAK (Homo sapiens, UniProt Q05397); test: FAK inhibition; format: biochemical
FAK, sequence (Q05397 whole entry, species assumed): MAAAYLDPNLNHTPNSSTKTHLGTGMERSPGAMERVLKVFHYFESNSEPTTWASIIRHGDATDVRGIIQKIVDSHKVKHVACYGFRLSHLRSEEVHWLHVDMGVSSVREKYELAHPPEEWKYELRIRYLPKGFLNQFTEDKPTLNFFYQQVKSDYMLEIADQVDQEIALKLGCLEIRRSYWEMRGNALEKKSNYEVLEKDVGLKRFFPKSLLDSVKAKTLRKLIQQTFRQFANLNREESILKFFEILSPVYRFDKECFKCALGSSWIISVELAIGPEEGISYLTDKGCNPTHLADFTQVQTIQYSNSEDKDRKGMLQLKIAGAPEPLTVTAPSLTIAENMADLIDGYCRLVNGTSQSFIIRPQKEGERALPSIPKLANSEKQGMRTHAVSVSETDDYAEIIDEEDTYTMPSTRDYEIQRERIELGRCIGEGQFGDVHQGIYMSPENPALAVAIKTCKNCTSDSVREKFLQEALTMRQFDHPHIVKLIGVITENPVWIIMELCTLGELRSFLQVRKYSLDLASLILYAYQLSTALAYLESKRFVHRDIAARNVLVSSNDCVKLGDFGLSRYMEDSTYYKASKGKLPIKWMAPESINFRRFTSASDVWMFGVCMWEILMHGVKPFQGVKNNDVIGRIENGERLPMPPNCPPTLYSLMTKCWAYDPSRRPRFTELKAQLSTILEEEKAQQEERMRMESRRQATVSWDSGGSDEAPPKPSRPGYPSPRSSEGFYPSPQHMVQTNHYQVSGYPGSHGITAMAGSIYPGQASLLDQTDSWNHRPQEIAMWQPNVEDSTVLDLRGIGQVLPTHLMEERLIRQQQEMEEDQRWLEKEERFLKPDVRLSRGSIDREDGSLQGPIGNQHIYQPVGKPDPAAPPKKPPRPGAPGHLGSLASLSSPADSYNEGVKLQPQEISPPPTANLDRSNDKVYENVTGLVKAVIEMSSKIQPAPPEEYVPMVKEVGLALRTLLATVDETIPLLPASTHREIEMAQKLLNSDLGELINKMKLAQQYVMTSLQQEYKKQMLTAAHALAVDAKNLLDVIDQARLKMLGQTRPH

SMILES | melting point [°C] | IC50 [1] [µM] | IC50 [2] [µM] | IC50 [3] [µM]
NC(=O)c1[nH]c2ccccc2c1-c1ccc(NC(=O)Nc2cc(C(F)(F)F)ccc2F)cc1 [Example 1, 3-{4-[3-(2-Fluoro-5-trifluoromethylphenyl)-ureido]phenyl}-1H-indole-2-carboxamide] | 240 to 242 | 0.003 | 0.035 | –
NC(=O)c1[nH]c2cccnc2c1-c1ccc(NC(=O)Nc2cc(C(F)(F)F)ccc2F)cc1 [Example 2, 3-{4-[3-(2-Fluoro-5-trifluoromethylphenyl)-ureido]phenyl}-1H-pyrrolo[3,2-b]pyridine-2-carboxamide] | 206 to 208 | 0.004 | 0.012 | –
NC(=O)c1[nH]c2ccccc2c1-c1ccc(NC(=O)Nc2ccccc2)cc1 [Example 3, 3-[4-(3-Phenylureido)phenyl]-1H-indole-2-carboxamide] | 232 to 234 | 0.296 | 1.52 | –
Cc1cccc(NC(=O)Nc2ccc(-c3c(C(N)=O)[nH]c4ccccc34)cc2)c1 [Example 4, 3-[4-(3-m-Tolylureido)phenyl]-1H-indole-2-carboxamide] | 140 to 142 | 0.019 | 0.181 | –
NC(=O)c1[nH]c2ccccc2c1-c1ccc(NC(=O)Nc2cccc(C(F)(F)F)c2)cc1 [Example 5, 3-[4-(3-Trifluoromethylphenylureido)phenyl]-1H-indole-2-carboxamide] | 156 to 158 | 0.006 | 0.05 | –
Cc1cc(C)cc(NC(=O)Nc2ccc(-c3c(C(N)=O)[nH]c4ccccc34)cc2)c1 [Example 6, 3-[4-(3,5-Dimethylphenylureido)phenyl]-1H-indole-2-carboxamide] | 168 to 170 | 0.016 | 0.047 | –
NC(=O)c1[nH]c2ccccc2c1-c1ccc(NC(=O)Nc2ccccc2F)cc1 [Example 7, 3-[4-(2-Fluorophenylureido)phenyl]-1H-indole-2-carboxamide] | 146 to 148 | 0.142 | 1.75 | –
Cn1c(C(N)=O)c(-c2ccc(NC(=O)Nc3cc(C(F)(F)F)ccc3F)cc2)c2ccccc21 [Example 8, 3-{4-[3-(2-Fluoro-5-trifluoromethylphenyl)-ureido]phenyl}-1-methyl-1H-indole-2-carboxamide] | > 260 | 0.027 | 0.26 | –
NC(=O)c1[nH]c2ccccc2c1-c1ccc(NC(=O)Nc2ccc(C(F)(F)F)c(Cl)c2)cc1 [Example 9, 3-{4-[3-(3-Chloro-4-trifluoromethylphenyl)-ureido]phenyl}-1H-indole-2-carboxamide] | 168 to 170 | 0.017 | 0.138 | –
CC(C)(C)c1cc(NC(=O)Nc2ccc(-c3c(C(N)=O)[nH]c4ccccc34)cc2)no1 [Example 10, 3-{4-[3-(5-tert-butylisoxazol-3-yl)ureido]-phenyl}-1H-indole-2-carboxamide] | 176 to 178 | 0.003 | 0.037 | 0.303
NC(=O)c1[nH]c2ccccc2c1-c1ccc(NC(=O)Nc2ccc(OC(F)(F)F)cc2)cc1 [Example 11, 3-{4-[3-(4-Trifluoromethoxyphenyl)ureido]-phenyl}-1H-indole-2-carboxamide] | 162 to 164 | 0.105 | 0.153 | –
COc1ccc(C(F)(F)F)cc1NC(=O)Nc1ccc(-c2c(C(N)=O)[nH]c3ccccc23)cc1 [Example 12, 3-{4-[3-(2-Methoxy-5-trifluoromethylphenyl)ureido]phenyl}-1H-indole-2-carboxamide] | 178 to 180 | – | – | –
NC(=O)c1[nH]c2ccccc2c1-c1ccc(NS(=O)(=O)c2cc(C(F)(F)F)ccc2F)cc1 [Example 13, 3-[4-(2-Fluoro-5-trifluoromethylbenzenesulfonylamino)phenyl]-1H-indole-2-carboxamide] | 176 to 178 | – | – | –
NC(=O)c1[nH]c2ccccc2c1-c1ccc(NS(=O)(=O)c2cccc(Cl)c2Cl)cc1 [Example 14, 3-[4-(2,3-Dichlorobenzenesulfonylamino)-phenyl]-1H-indole-2-carboxamide] | > 260 | – | – | –

Second part, the compound after the results:

melting point [°C] | IC50 [1] [µM] | IC50 [2] [µM] | IC50 [3] [µM] | SMILES
> 260 | – | – | – | Cc1ccc(-n2nc(C(C)(C)C)cc2NC(=O)Nc2ccc(-c3c(C(N)=O)[nH]c4ccccc34)cc2)cc1 [Example 15, 3-{4-[3-(5-tert-Butyl-2-p-tolyl-2H-pyrazol-3-yl)ureido]phenyl}-1H-indole-2-carboxamide]
220 | – | – | – | Cc1ccc(F)c(NC(=O)Nc2ccc(-c3c(C(N)=O)[nH]c4ccccc34)cc2)c1 [Example 16]
– | 0.22 | 1.89 | – | NC(=O)c1[nH]c2ccccc2c1-c1ccc(NC(=O)Nc2cc(C(F)(F)F)ccc2CN2CCCC2)cc1 [Example 19, 3-{4-[3-(2-Pyrrolidin-1-ylmethyl-5-trifluoromethylphenyl)ureido]phenyl}-1H-indole-2-carboxamide]
– | 0.059 | 0.234 | – | COCc1ccc(C(F)(F)F)cc1NC(=O)Nc1ccc(-c2c(C(N)=O)[nH]c3ccccc23)cc1 [Example 20, 3-{4-[3-(2-Methoxymethyl-5-trifluoromethylphenyl)ureido]phenyl}-1H-indole-2-carboxamide]
– | 0.032 | 0.195 | – | NC(=O)c1[nH]c2ccc[n+]([O-])c2c1-c1ccc(NC(=O)Nc2cc(C(F)(F)F)ccc2F)cc1 [Example 21, 3-{4-[3-(2-Fluoro-5-trifluoromethylphenyl)-ureido]phenyl}-4-oxy-1H-pyrrolo[3,2-b]pyridine-2-carboxamide]
– | 0.007 | 0.09 | – | COCCOc1ccc2c(-c3ccc(NC(=O)Nc4cc(C(F)(F)F)ccc4F)cc3)c(C(N)=O)[nH]c2c1 [Example 23, 3-{4-[3-(2-Fluoro-5-trifluoromethylphenyl)-ureido]phenyl}-6-(2-methoxyethoxy)-1H-indole-2-carboxamide]
– | 0.007 | 0.031 | – | NC(=O)c1[nH]c2c(N)cccc2c1-c1ccc(NC(=O)Nc2cc(C(F)(F)F)ccc2F)cc1 [Example 30, 7-Amino-3-{4-[3-(2-fluoro-5-trifluoromethylphenyl)ureido]phenyl}-1H-indole-2-carboxamide]
– | 0.006 | 0.075 | – | NC(=O)c1[nH]c2c(NCCO)cccc2c1-c1ccc(NC(=O)Nc2cc(C(F)(F)F)ccc2F)cc1 [Example 31, 3-{4-[3-(2-Fluoro-5-trifluoromethylphenyl)-ureido]phenyl}-7-(2-hydroxyethylamino)-1H-indole-2-carboxamide]
– | 0.028 | 0.144 | – | CN(C)CC(=O)Nc1cccc2c(-c3ccc(NC(=O)Nc4cc(C(F)(F)F)ccc4F)cc3)c(C(N)=O)[nH]c12 [Example 32, 7-(2-Dimethylaminoacetylamino)-3-{4-[3-(2-fluoro-5-trifluoromethylphenyl)ureido]phenyl}-1H-indole-2-carboxamide]
– | 0.291 | 0.199 | – | NC(=O)c1[nH]c2ccccc2c1-c1ccc(NC(=O)Nc2ccc(OC(F)F)cc2)cc1 [Example 37, 3-{4-[3-(4-Difluoromethoxy-phenyl)ureido]phenyl}-1H-indole-2-carboxamide]
– | 0.151 | 0.153 | – | CC(C)c1ccc(NC(=O)Nc2ccc(-c3c(C(N)=O)[nH]c4ccccc34)cc2)cc1 [Example 53, 3-{4-[3-(4-Isopropyl-phenyl)ureido]phenyl}-1H-indole-2-carboxamide]
